target: human αVβ3 receptor (Homo sapiens, UniProt P05106+P06756); assay: Kistrin/Vitronectin receptor (αVβ3) ELISA test; assay type: binding; settings: co-incubated 3 hours at ambient temperature, read-out: K/VnR IC50
Protocol: Pharmacological Test: Kistrin/Vitronectin Receptor (αVβ3) ELISA Test
96-well MaxiSorp plates are coated overnight at […] with 100 μl of Kistrin at 1 μg/ml (dilution in coating buffer: 0.05M (carbonate)/NaOH pH 9.6. The next day, the wells are emptied and the ligands (kistrin) are then fixed (fixation buffers: PBS containing 0.5% BSA (pH=7.4)) for 1 hour at ambient temperature under gentle stirring of 125 rpm. The wells are washed six times (washing buffer: PBS containing 0.05% Tween 20 (pH 7.7) then the following is added per well and in this order:
40 μl of incubation buffer
10 μl of the dilution of the product to be tested (the products are diluted in a 50:50 DMSO/water mixture)
50 μl of human αVβ3 receptor (cf Pytella et al. Methods Enzymol. (1987) 144 (Dilution in incubation buffer, adapted according to the batch of receptor and according to the ligand). The ligand, the αVβ3 receptor and the products to be studied are co-incubated for 3 hours at ambient temperature with gentle stirring of 125 rpm.
The wells are again washed six times, then incubated for 2 hours at ambient temperature with gentle stirring of 125 rpm, in the presence of 100 μl of anti-receptor antibody coupled to a peroxidase (The 4B12-HRP antibody is diluted in incubation buffer (50 mM TRIS pH 7.4; 0.5% BSA; 0.05% Tween 20; 1 mM MnCl2; 50 μM CaCl2; 50 μM MgCl2; 100 mM NaCl). The dilution is to be adapted according to the batch of receptor.
The wells are then washed six times before measurement of the ligand-receptor bond is carried out using a peroxidase developer kit (TBM Microwell Peroxidase Substrate System Kirkegaard; Ref cat 50-76-00).
This kit contains a flask A of substrate (3,3′,5,5′-tetramethylebenzidine at 0.4 g/l) and a flask B (0.02% H2O2 in Citrate/Citric acid). Extemporaneously, one volume of A is mixed with one volume of B, then the reaction mixture is distributed at a rate of 100 μl/well.
The enzymatic reaction develops between 6 to 10 minutes for Kistrin/αVβ3 then its development is stopped by the addition of 100 μl of 1M phosphoric acid. The optical density is determined at 450 nm.
Expression of the Results
The following curve is plotted: the bond percentage as a function of the logarithm of each concentration of the tested product. For each product the IC50 is determined according to the following formula: IC50=(B0+Bmin)/2
B0=Maximum bond in the absence of any product
Bmin=Minimum bond in the presence of the highest concentration of the product.

Chain of human αVβ3 receptor (P06756 31-889 limits assumed): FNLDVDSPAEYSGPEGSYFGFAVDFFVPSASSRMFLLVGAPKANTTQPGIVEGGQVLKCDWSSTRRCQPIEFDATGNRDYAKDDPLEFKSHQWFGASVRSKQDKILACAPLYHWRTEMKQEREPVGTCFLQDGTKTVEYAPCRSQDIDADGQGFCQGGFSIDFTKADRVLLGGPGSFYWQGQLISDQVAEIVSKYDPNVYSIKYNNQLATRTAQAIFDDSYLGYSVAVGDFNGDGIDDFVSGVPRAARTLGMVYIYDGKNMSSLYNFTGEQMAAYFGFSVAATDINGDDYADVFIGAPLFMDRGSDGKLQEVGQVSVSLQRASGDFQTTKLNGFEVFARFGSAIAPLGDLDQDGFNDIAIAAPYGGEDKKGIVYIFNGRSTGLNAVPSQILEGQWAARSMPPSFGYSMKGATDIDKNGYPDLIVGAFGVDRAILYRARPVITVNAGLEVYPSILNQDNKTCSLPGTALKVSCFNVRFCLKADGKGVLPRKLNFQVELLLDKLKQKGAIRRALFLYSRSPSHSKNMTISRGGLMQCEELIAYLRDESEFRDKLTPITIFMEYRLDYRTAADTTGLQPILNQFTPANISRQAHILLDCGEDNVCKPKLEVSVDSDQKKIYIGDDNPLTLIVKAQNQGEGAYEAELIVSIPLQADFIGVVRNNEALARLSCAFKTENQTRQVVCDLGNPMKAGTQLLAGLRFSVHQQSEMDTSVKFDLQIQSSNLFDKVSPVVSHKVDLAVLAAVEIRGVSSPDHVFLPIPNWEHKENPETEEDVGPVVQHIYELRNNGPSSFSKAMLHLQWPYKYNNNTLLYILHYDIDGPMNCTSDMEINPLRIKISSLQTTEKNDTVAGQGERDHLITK
Chain of human αVβ3 receptor (P06756 891-1048 partner limits assumed): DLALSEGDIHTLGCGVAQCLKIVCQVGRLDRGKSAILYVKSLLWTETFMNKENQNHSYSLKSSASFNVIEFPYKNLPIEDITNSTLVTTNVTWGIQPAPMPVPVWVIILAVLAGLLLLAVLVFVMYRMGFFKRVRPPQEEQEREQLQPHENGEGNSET
Chain of human αVβ3 receptor (P05106 27-788): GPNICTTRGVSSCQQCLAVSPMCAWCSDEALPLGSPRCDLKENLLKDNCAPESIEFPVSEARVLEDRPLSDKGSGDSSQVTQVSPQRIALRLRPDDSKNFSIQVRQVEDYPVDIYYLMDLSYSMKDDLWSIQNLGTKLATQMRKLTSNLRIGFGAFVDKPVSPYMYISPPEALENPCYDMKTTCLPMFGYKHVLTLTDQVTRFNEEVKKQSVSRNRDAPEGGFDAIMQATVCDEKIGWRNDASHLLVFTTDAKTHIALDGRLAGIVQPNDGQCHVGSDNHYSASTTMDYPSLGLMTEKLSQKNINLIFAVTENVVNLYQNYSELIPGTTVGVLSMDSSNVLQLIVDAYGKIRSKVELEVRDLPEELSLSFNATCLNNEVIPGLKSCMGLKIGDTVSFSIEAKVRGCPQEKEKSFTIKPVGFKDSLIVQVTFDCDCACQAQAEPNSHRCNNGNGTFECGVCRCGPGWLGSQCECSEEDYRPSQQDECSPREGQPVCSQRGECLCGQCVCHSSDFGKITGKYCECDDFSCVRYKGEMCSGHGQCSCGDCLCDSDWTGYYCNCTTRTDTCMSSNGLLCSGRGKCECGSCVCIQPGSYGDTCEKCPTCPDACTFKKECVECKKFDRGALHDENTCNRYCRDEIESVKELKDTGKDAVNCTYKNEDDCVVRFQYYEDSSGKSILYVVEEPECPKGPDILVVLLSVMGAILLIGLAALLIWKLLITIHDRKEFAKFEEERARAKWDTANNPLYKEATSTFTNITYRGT

IC50 [nM]	SMILES
3	CCc1c(NCC(NC(=O)OCc2ccccc2)C(=O)O)ncnc1N1CCC(c2ccc3c(n2)NCCC3)CC1 (racemic) [Example 1, 3-[[5-ethyl-6-[4-(1,2,3,4-tetrahydro-1,8-naphthyridin-7-yl)-1-piperidinyl]-4-pyrimidinyl]amino]-N-[(phenylmethoxy)carbonyl]alanine, bis(trifluoroacetate)]
160	CCc1c(NCC(NC(=O)OCc2ccccc2)C(=O)O)ncnc1N1CCC(C(=O)N=C2NCCCN2)CC1 (racemic) [Example 2, 3-[[5-ethyl-6-[4-[(1,2,3,4,5,6-hexahydro-2-pyrimidinyl)iminocarbonyl]-1-piperidinyl]-4-pyrimidinyl]amino]-N-[(phenylmethoxy)carbonyl]alanine]
3.1	Cc1c(NCC(NC(=O)OCc2ccccc2)C(=O)O)ncnc1N1CCC(c2ccc3c(n2)NCCC3)CC1 (racemic) [Example 3, 3-[[6-[4-(1,2,3,4-tetrahydro-1,8-naphthyridin-7-yl)-1-piperidinyl]-5-methyl-4-pyrimidinyl]amino]-N-[(phenylmethoxy)carbonyl]alanine]
5.1	Cc1c(NCC(NC(=O)OCc2ccccc2)C(=O)O)ncnc1N1CCC(C(=O)N=C2NCCCN2)CC1 (racemic) [Example 4, 3-[[6-[4-[(1,2,3,4,5,6-hexahydro-2-pyrimidinyl)iminocarbonyl]-1-piperidinyl]-5-methyl-4-pyrimidinyl]amino]-N-[(phenylmethoxy)carbonyl]alanine]

test system: TPXT rats; assay: Hypercalcemia induced by the parathyroid hormone (PTH) in a thyroparathyroidectomized (TPXT) rat model; assay type: in vivo; settings: doses ranging from twice 1 mg/kg to twice 10 mg/kg by subcutaneous route in the rat, at time 0 and 3 hours; serum Ca at 6 hours
Protocol: Hypercalcemia induced by the parathyroid hormone (PTH) in a thyroparathyroidectomized (TPXT) rat model
Stimulation of bone resorption is induced in TPXT rats by perfusion of PTH and the variations of bone resorption are monitored by the concentration of calcium in the serum.
Male Sprague Dawley rats weighing 150-200 g are thyroparathyroidectomized. The rats are subjected to a standard diet containing 7 g Ca/kg (UAR) and Volvic water. The effectiveness of the thyroparathyroidectomy is tested by measuring the concentrations of Ca in the serum 8 days after the operation in animals which have been starved since the previous day. The rats are considered as thyroparathyroidectomized when the Ca levels in the serum are less than 80 mg/l. The PTH (1-34) of the rat (Bachem) is dissolved in 0.15M of NaCl Cys.HCl 2% and delivered by osmotic minipumps (ALZET 2001D) at a dose of 200 pmol/kg/h. The minipumps are introduced into the intraperitoneal cavities under anaesthesia (ketamine—75 mg/kg and acepromazine—2.5 mg/kg) of the TPXT rats which have been starved since the previous day. The control TPXT rats receive the minipumps filled with the PTH vehicle.
Either the product to be tested or the vehicle (controls and rats treated with the PTH) are administered twice by sub-cutaneous route (2 ml/kg of body weight) at time 0 and 3 hours after the start of the infusion of PTH. The test is continued for the next 6 hours. At the end of the treatment, all the blood is collected after decapitation. The blood samples are centrifuged at 3000 rpm for 15 minutes (CR422 Jouan) in order to obtain the serum.
The total concentrations of Ca in the serum are measured by colorimetry (Ciba-Corning) using an IEMS Labsystems microplate reading system, at 540 nm.
The difference between the average calcemia values of the treated rats and the control groups is analyzed by variance and by the Dunnett test.
The activity of a product is calculated by the following formula: […]

SMILES	activity against PTH-induced hypercalcemia (total Ca in the serum)
Cc1c(NC[C@H](NC(=O)OCc2ccccc2)C(=O)O)ncnc1N1CCC(c2ccc3c(n2)NCCC3)CC1 [Example 6, 3-[[5-methyl-6-[4-(1,2,3,4-tetrahydro-1,8-naphthyridin-7-yl)-1-piperidinyl]-4-pyrimidinyl]amino]-N-[(phenylmethoxy)carbonyl]alanine, bis(trifluoroacetate)]	active
CCc1c(NC[C@H](NC(=O)OCc2ccccc2)C(=O)O)ncnc1N1CCC(c2ccc3c(n2)NCCC3)CC1 [Example 9, 3-[[5-ethyl-6-[4-(1,2,3,4-tetrahydro-1,8-naphthyridin-7-yl)-1-piperidinyl]-4-pyrimidinyl]amino]-N-[(phenylmethoxy)carbonyl]alanine, bis(trifluoroacetate)]	active
CCc1c(NC[C@H](NC(=O)OCc2ccccc2)C(=O)OC(C)C)ncnc1N1CCC(c2ccc3c(n2)NCCC3)CC1 [Example 13, isopropyl 3-[[6-[4-(1,2,3,4-tetrahydro-1,8-naphthyridin-7-yl)-1-piperidinyl]-5-ethyl-4-pyrimidinyl]amino]-N-[(phenylmethoxy)carbonyl]alaninate]	active
